Test system: protease
Type: biochemical
Settings: pH 9

| Structure (SMILES) | Residual activity (2 weeks at 40° C.) [%] | Residual activity (4 weeks at 40° C.) [%] |
| --- | --- | --- |
| [Cl-].[Cl-].[Zn+2] [Zink Chloride] | 102 |  |
| N.O=[N+]([O-])O [Armonium Nitrate] |  | 41 |
| O=S(=O)([O-])[O-].[Mg+2] [Magnesium Sulfate] |  | 37 |
| O=P(O)(O)O [Sodium Phosphate] |  | 13 |
| O=C([O-])CC(O)(CC(=O)[O-])C(=O)[O-].[Na+].[Na+].[Na+] [Sodium Citrate] |  | 1 |
| O=C([O-])[O-].[Na+].[Na+] [Sodium Carbonate] |  | 15 |
| O=S(=O)([O-])[O-].[Na+].[Na+] [Sodium Sulfate] |  | 22 |
| CC(=O)[O-].[Na+] [Sodium Acetate] |  | 20 |
| Cl.N [Armonium Chloride] |  | 49 |
| [Cl-].[Cl-].[Mg+2] [Magnesium Chloride] |  | 79 |
| O=[N+]([O-])[O-].O=[N+]([O-])[O-].[Mg+2] [Magnesium Nitrate] |  | 55 |
| [Cl-].[Na+] [Sodium Chloride] |  | 32 |
| O=[N+]([O-])[O-].[Na+] [Sodium Nitrate] |  | 20 |
| [Cl-].[K+] [Potassium Chloride] |  | 34 |
| [Ca+2].[Cl-].[Cl-] [Calcium Chloride] |  | 22 |
| O=C[O-].[Na+] [Sodium Formiate] |  | 29 |
| N.N.O=S(=O)(O)O [Armonium Sulfate] |  | 43 |
| O=S(=O)([O-])[O-].[Zn+2] [Zink Sulfate] | 88 |  |
| [Cl][Al]([Cl])[Cl] [Aluminium Chloride] |  | 16 |

Biological target: subtilisin (Bacillus licheniformis, UniProt P00780)
Settings: literature statement, Biochem. Biophys. Res. Com. 176, 1991; cited from earlier work

Chain of subtilisin (P00780 106-379): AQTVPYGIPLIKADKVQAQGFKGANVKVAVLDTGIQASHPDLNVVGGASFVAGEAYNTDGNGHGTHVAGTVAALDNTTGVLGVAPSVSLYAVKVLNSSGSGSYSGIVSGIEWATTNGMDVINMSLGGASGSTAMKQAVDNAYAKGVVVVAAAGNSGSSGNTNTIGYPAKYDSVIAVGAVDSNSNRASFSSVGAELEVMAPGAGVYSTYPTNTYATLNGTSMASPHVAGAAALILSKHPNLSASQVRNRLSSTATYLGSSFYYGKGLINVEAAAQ

| Structure (SMILES) | capacity as subtilisin inhibitor |
| --- | --- |
| OB(O)c1cc(Cl)cc(Cl)c1 [3,5-dichlorophenylboronic acid] | particularly effective |
| CB(O)O [methylboronic acid] | poorest inhibitor |

— US11827866B2 (priority 2007, dated 2023)
